Data as given in the NIST ThermoML archive (doi:10.1016/j.tca.2009.07.008).

Experiment: mn = molality of the nth substance listed, in mol/kg
Settings: 303.15 K, 101 kPa, Liquid, Capillary tube (Ostwald / Ubbelohde) method

CCCCN [1-butanamine] + C1CCOC1
Settings | viscosity [mPa·s]
m1 = 0.1429 | 0.329
m1 = 0.2304 | 0.3312
m1 = 0.5054 | 0.336
m1 = 0.588 | 0.3398
m1 = 0.7153 | 0.3442
m1 = 0.8391 | 0.3481
m1 = 1.009 | 0.351
m1 = 1.27 | 0.3549
m1 = 1.407 | 0.3619

CCCCN [1-butanamine] + C1COCCO1
Settings | viscosity [mPa·s]
m1 = 0.1085 | 1.06
m1 = 0.2365 | 1.046
m1 = 0.3679 | 1.032
m1 = 0.4745 | 1.02
m1 = 0.5834 | 1.007
m1 = 0.7574 | 0.9893
m1 = 0.8872 | 0.9764
m1 = 1.004 | 0.9652
m1 = 1.116 | 0.9543

CCCCNCCCC [dibutylamine] + C1CCOC1
Settings | viscosity [mPa·s]
m1 = 0.1402 | 0.3333
m1 = 0.2993 | 0.3417
m1 = 0.4313 | 0.3498
m1 = 0.5953 | 0.3567
m1 = 0.7592 | 0.3648
m1 = 0.8997 | 0.3735
m1 = 1.027 | 0.3806
m1 = 1.201 | 0.3912
m1 = 1.381 | 0.4015

CCCCNCCCC [dibutylamine] + C1COCCO1
Settings | viscosity [mPa·s]
m1 = 0.1225 | 1.065
m1 = 0.2369 | 1.053
m1 = 0.3608 | 1.04
m1 = 0.4533 | 1.031
m1 = 0.594 | 1.019
m1 = 0.7122 | 1.006
m1 = 0.8855 | 0.9937
m1 = 0.9669 | 0.9865
m1 = 1.138 | 0.9766

CCCNCCC [dipropylamine] + C1CCOC1
Settings | viscosity [mPa·s]
m1 = 0.1794 | 0.332
m1 = 0.285 | 0.335
m1 = 0.4155 | 0.3388
m1 = 0.5881 | 0.3437
m1 = 0.7109 | 0.3491
m1 = 0.9435 | 0.3545
m1 = 1.051 | 0.3574
m1 = 1.198 | 0.364
m1 = 1.357 | 0.3717

CCCNCCC [dipropylamine] + C1COCCO1
Settings | viscosity [mPa·s]
m1 = 0.0998 | 1.062
m1 = 0.2282 | 1.05
m1 = 0.341 | 1.039
m1 = 0.4787 | 1.027
m1 = 0.6261 | 1.012
m1 = 0.7266 | 1.001
m1 = 0.8461 | 0.9902
m1 = 0.9821 | 0.9801
m1 = 1.149 | 0.9661

CCCN [propan-1-amine] + C1CCOC1
Settings | viscosity [mPa·s]
m1 = 0.1123 | 0.328
m1 = 0.2842 | 0.3315
m1 = 0.3986 | 0.3329
m1 = 0.5609 | 0.3353
m1 = 0.7487 | 0.3395
m1 = 0.8957 | 0.3412
m1 = 1.002 | 0.3436
m1 = 1.139 | 0.3453
m1 = 1.377 | 0.3513

CCCN [propan-1-amine] + C1COCCO1
Settings | viscosity [mPa·s]
m1 = 0.1086 | 1.06
m1 = 0.2456 | 1.043
m1 = 0.3295 | 1.028
m1 = 0.478 | 1.014
m1 = 0.5767 | 0.9987
m1 = 0.7164 | 0.9852
m1 = 0.8321 | 0.9693
m1 = 1.028 | 0.9504
m1 = 1.116 | 0.9395
